# Data: patent US20200023080A1, “COMPOSITIONS AND METHOD FOR THE TREATMENT AND DETECTION OF COLON CANCER” (priority 2015, published 2020)
# Positions of bridges follow the written chain, without caps; N, C: chain ends. Non-standard residues stand in square brackets, D forms with d. No end group written: not given here. IRDye‑680LT = infrared dye IRDye-680LT, conjugated via NHS ester
# Tests used:
# GC-C receptor = GC-C receptor (Homo sapiens, UniProt P25092); conditions: cited from earlier work
# [1] = tested on: cGMP production in T84 cells; assay: T84 cGMP bioassay; assay type: cell-based, Human; conditions: FIG. 6
# [2] = tested on: colonic adenomas in Apc^+/Min-FCCC mice; assay: Ex-vivo imaging of excised colons incubated with probe (IVIS Spectrum); conditions: 0.1 μM probe; for signal / ability to detect polyps in older mice: 4 and 6 month old mice
# Protocol: Ex-vivo and in vivo studies have been performed to evaluate the specificity of the IR680-SP-333 probe for colonic adenomas in Apc^+/Min-FCCC mice. IR680-SP-333 was prepared in DMEM/F-12 media containing 20 mM sodium phosphate buffer and 3% BSA, pH6; the same media used for in vitro experiments. Based on data from an initial pilot study, incubation of tissue with 0.1 μM IR680-SP-333 for 30 min at 37° C. was selected as the optimal condition for ex-vivo studies. Epifluorescence images were acquired as follows: excitation wavelength=640 nm, detection wavelength=700 nm, exposure time=auto-3 min, F-stop=1, binning=1 (“small” setting), field of view=0.3 cm (setting “C”). […] To eliminate the contribution of the age of mouse to the observed heterogeneity in probe binding, an in depth imaging study was performed in mice of various ages (2, 3, 4, 5 and 6 months). In this ex-vivo study, mice were euthanized and colons excised, opened longitudinally, and washed with PBS. Colon tissues were incubated with 0.1 μM IR680-SP-333 at 37° C. for 30 min. After incubation, the tissues were washed with PBS (4 times) and imaged in the IVIS Spectrum, using the settings described above. Careful review of the resulting images lead to three major conclusions: 1) the binding of the IR680-SP-333 probe to colorectal polyps is size dependent. […] 2) because the signal varied with polyp size, binding was enhanced in mice 2-3 months of age where the majority of colorectal polyps were smaller (≤3 mm in diameter) (FIG. 7). As the mice aged, the colorectal polyps increased in size and the ability of probe to detect the polyps decreased (FIG. 8). […] Because the incidence of colorectal polyps is higher in mice 3 months (70%) vs. 2 months (45%) of age, a decision was made to use mice 10-12 weeks of age for all subsequent in vivo IR680-SP-333 analyses to minimize the number of animal that needed to be screened for tumors. 3) signal of the IR680-SP-333 probe was high at the proximal and distal ends of the colon even in the absence of polyps. Similar nonspecific binding of unknown origin has been observed in previous experiments with independent probes at these same extreme regions.
# [3] = biological target: T1, GC-C expressed on T84 cells (Homo sapiens, UniProt P25092); assay: Binding of IR680-SP-333 probe to T84 cell monolayer; conditions: 4° C. for 1 hour, FIG. 3
# T1 construct: endogenous in cells; host or cells: T84 human colon carcinoma cells
# Protocol: Experiments were performed to establish binding conditions to reduce background and to enhance specific binding. These experiments concluded that the age of T84 monolayer should be between 7-9 days after seeding to allow maximum expression of GC-C on the cell surface. Next, we established the optimal binding buffer, incubation time to allow binding of probe to T84 cells and temperature of binding incubation to minimize endocytosis. The optimal conditions for specific binding of probe to T84 cells are briefly described here. Human T84 cells were grown to confluence in 96 black clear bottom plates. Media was aspirated and the plate was blocked with 200 ul/well of blocking buffer (DMEM/F12+150 mM NaCl+20 mM Sodium phosphate dibasic, pH was adjusted to 6.0 with 1N HCl) for 2 hours in cell culture incubator at 37° C.
# [4] = tested on: colon polyps in Apc^+/Min-FCCC mice; assay: In vivo gavage of probe, imaging of excised colon and histopathology
# Protocol: Following the ex-vivo binding studies, an experiment was performed to assess the ability of the probe to remain intact as it passed through the GI tract and bind to colonic lesions. In this in vivo experiment, Apc^+/Min-FCCC mice (10-12 wks of age) were subjected to a colonoscopic examination prior to probe administration, according to a protocol established previously (Hensley, Gastrointestinal Endoscopy group). Mice with confirmed colon polyps were randomized to receive IR680-SP-333 at 0.5 or 0.05 mg/kg body weight by gavage. Prior to probe administration, mice were fasted overnight and provided Pedialyte ad libitum for bowel cleansing. Mice were gavaged with IR680-SP-333 and euthanized at 30, 60, 90 and 120 min post treatment. At the time of euthanasia, the colon was excised, opened its entire length and rinsed with saline. Each colon was then placed on a plastic ruler and imaged in an IVIS Spectrum system using the settings described above for the ex-vivo experiments. Immediately following image acquisition, the entire colon was placed intact on a plastic ruler in 10% normal buffered formalin and areas positive and negative for probe signal were collected for histopathological evaluation. […] Evaluation of additional doses of IR680-SP-333 probe (0.0158 and 0.158 mg/kg body weight) confirmed that gavaging mice with IR680-SP-333 at 0.05 mg/kg body weight and imaging 30 min post treatment yielded the greatest differential in signal between the non-neoplastic and neoplastic colonic mucosa.
# Colon tissues with strong signal (tumor) and corresponding background signal (nonneoplastic control) were processed for histopathology evaluation and reviewed bin a blinded manner. […] This heterogeneity made it impossible to standardize the epi-fluorescence scale and classify positive and negative signals based solely on the epi-fluorescence value. […] In FIG. 12 (mouse ID 12201), strong signal is localized to a hyperplastic polyp (HP); an area of high proliferation; providing additional support for the lack of correlation between the intensity of the probe signal and size/type of colonic lesion. […] The probe IR-680-SP-333 may also be useful in detection of colorectal metastasis in liver and other organs.
# [5] = biological target: T2, GC-C binding sites on T84 cells (Homo sapiens, UniProt P25092); assay: Binding of IR680-SP-333 probe to suspension of T84 cells; conditions: 0.5 μM probe, 4° C. for 30 mins, FIG. 4
# T2 construct: endogenous in cells; host or cells: T84 human colon carcinoma cells
# Protocol: Next, we performed binding of probe to suspension of T84 cells. In this set of experiments, cells cultured for 9 days in T75 flasks were harvested by scraping and suspended in pre-chilled binding media. Different densities of cells were incubated with […] IR680-SP-333 (final concentration 0.5 μM) in pre-chilled binding buffer at 4° C. for 30 mins. The IR680-SP-333 was diluted with unlabeled SP-333 to adjust the final concentration of probe 0.5 μM. This dilution was necessary to saturate the available GC-C binding sites on 40,000 cells.
# T1 sequence (P25092 24-1073): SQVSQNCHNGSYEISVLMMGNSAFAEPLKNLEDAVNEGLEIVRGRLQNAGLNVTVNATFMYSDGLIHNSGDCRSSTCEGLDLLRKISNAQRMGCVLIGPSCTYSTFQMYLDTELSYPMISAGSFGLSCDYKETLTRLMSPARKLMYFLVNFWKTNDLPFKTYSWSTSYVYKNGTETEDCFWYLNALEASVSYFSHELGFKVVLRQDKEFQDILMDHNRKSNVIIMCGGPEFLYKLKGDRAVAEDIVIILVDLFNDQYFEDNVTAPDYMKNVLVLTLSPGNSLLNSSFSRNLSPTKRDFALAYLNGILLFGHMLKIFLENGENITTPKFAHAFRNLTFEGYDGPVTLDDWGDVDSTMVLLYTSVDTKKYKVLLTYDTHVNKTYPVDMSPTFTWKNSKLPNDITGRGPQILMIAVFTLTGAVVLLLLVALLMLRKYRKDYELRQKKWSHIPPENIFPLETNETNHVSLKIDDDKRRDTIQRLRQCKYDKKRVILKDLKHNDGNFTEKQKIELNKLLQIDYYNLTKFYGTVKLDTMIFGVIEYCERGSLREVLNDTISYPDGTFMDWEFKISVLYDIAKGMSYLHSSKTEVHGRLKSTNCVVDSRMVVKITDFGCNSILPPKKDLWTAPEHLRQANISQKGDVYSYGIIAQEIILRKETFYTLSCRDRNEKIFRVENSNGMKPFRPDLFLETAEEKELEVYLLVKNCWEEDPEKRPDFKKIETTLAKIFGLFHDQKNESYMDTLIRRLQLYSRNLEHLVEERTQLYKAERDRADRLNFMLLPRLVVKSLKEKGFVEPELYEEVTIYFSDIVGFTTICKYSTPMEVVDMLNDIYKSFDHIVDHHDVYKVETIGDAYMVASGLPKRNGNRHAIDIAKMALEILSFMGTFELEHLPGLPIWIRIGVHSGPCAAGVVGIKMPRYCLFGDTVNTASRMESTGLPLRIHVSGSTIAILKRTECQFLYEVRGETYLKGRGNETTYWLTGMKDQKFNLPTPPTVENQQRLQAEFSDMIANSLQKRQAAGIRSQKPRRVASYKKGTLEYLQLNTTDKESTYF
# T2 sequence (P25092 24-1073): as above
# GC-C receptor, sequence (P25092 24-1073): as above
substance,measurement,setting,value
"Asn^1-Asp^2-Asp^3-Cys^4-Glu^5-Leu^6-Cys^7-Val^8-Asn^9-Val^10-Ala^11-Cys^12-Thr^13-Gly^14-Cys^15-Leu^16 (NDDCELCVNVACTGCL; disulfide 4-12, 7-15) [Uroguanylin, a physiological ligand of GC-C, a 16 amino acid peptide with two disulfide bonds]",affinity for the GC-C receptor,GC-C receptor,nanomolar affinity
"IR680-SP-333: SP-333 labeled at the amine group with IRDye-680LT NHS ester; bioactive infrared fluorescence probe ({IRDye‑680LT}-[dN]DECELCVNVACTGC[dL]; disulfide 4-12, 7-15)",ability to stimulate cGMP production in T84 cells,[1],active
same,level of cGMP production compared to unconjugated SP-333,[1],slightly lower level
same,signal at the proximal and distal ends of the colon in the absence of polyps,[2]; 30 min,high
same,signal / ability to detect polyps in older mice,"[2]; 30 min, FIG. 8",decreased
same,signal / ability to detect polyps in older mice,"[2]; 30 min, FIG. 8, listed as SP-333-IR680",weaker than that observed in younger animals
same,binding in mice 2-3 months of age,"[2]; 30 min, polyps mostly ≤3 mm, FIG. 7",enhanced
same,binding to colorectal polyps versus surrounding normal colonic mucosa,[2]; 30 min at 37° C.,greater binding to colorectal polyps than to the surrounding normal colonic mucosa
same,binding to every colorectal polyp,[2]; 30 min at 37° C.,did not bind to every colorectal polyp
same,probe signal by polyp size,"[2]; 30 min at 37° C., FIG. 7",higher in polyps ≤3 mm in diameter than in those with a diameter >4 mm
same,binding of probe in the presence of 100-fold excess of unlabeled SP-333,[3],considerably reduced
same,"binding of probe to T84 cells (fluorescence ex680, em715)",[3],specifically bound to GC-C expressed on T84 cells in a dose-dependent manner
same,differential between signal of colorectal polyps and background of adjacent normal colonic mucosa,"[4]; gavage 0.05 mg/kg body weight, imaged 30 min post treatment, FIG. 9A",best differential
same,nonspecific signal at proximal and distal ends of colon,"[4]; gavage 0.5 mg/kg body weight, FIG. 9B",increased significantly
same,differential between tumor and normal tissue at higher dose,"[4]; gavage 0.5 mg/kg body weight, FIG. 9B, 0.5 mg/kg",failed to improve the difference in signal between neoplastic and nonneoplastic mucosa significantly
same,differential between tumor and normal tissue at higher dose,"[4]; gavage 0.5 mg/kg body weight, FIG. 9B, listed as SP-333-IR680, 0.5 mg/kg",failed to improve the differential between tumor and normal tissue
same,nonspecific binding at longer interval between dosing and imaging,"[4]; gavage, ≥90 min between dosing and imaging, FIG. 9C",increase in nonspecific binding
same,correlation of probe signal intensity with tumor size or histological subtype,"[4]; histopathology, blinded review",did not correlate with either tumor size or the histological subtype of lesion
same,probe signal in hyperplastic polyp (HP),"[4]; mouse ID 12201, FIG. 12",strong signal
same,probe signal in flat/indeterminate adenoma,"[4]; mouse ID 12276, FIG. 11",weaker signal
same,probe signal in small gross lesion (1-mm in size),"[4]; mouse ID 12276, FIG. 11",very strong probe signal
same,probe signal in adenoma,"[4]; mouse ID 12281, FIG. 10",intermediate signal intensity
same,probe signal in areas of hyperproliferation (HP),"[4]; mouse ID 12281, FIG. 10",strongest probe signal
same,probe signal in micro-adenoma compared to surrounding normal colonic mucosa,"[4]; mouse ID 12281, FIG. 10",slight increase in signal
same,background signal in normal colonic mucosa,[4]; same dose and same post treatment time interval,varied between mice receiving the same treatment regimen
same,binding of probe to cell suspension in the presence of 100-fold excess of SP-333,[5],abolished
